# Legend:
# protein kinase G = target: T1, protein kinase G (Homo sapiens, UniProt Q13976); experiment: Effect of activating protein kinase G: phosphorylation of Ser 157 of VASP detected by Western blotting in human uterine smooth muscle cells; format: cell-based; conditions: for 50-kDa band of VASP having the phosphorylated Ser at position 157 (anti-VASP (Ser157) antibody): 1 mM compound, 5, 10, 15 and 30 minutes after addition, no bands at 0 minutes
# T1 construct: host or cells: human uterine smooth muscle cells
# T1 sequence (Q13976 1-671): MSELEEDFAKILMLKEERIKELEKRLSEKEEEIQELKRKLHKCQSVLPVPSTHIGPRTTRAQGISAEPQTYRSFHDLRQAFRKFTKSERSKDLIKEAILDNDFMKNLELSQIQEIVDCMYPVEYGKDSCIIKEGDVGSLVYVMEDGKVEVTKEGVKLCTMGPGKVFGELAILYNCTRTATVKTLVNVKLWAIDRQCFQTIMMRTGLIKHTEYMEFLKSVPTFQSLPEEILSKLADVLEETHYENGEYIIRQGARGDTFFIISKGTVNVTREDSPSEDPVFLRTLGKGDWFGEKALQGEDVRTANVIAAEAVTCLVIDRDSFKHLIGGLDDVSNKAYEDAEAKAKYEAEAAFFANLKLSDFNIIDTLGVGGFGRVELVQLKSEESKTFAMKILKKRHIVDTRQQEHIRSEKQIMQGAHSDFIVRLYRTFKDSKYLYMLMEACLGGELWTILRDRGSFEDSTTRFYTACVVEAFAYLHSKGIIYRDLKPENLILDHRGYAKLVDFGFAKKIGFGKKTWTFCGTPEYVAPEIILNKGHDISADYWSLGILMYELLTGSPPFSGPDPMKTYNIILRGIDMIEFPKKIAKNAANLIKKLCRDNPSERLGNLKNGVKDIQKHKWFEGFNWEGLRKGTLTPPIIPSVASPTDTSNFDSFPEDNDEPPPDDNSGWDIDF
# Protocol: Intracellular signaling conducted by 8-nitroguanosine-3′,5′-cyclic monophosphate through mediation of protein kinase G was analyzed according to the method of Sergei D. Rybalkin et al (J. Biol. Chem. 277 3310-3317, 2002). Specifically, phosphorylation of Ser at position 157 of VASP (Vasodilator Stimulated Phosphoprotein), a substrate protein of protein kinase G, was detected by Western blotting. Specifically, human uterine smooth muscle cells (produced by CAMBREX) were cultured in Dulbecco's Modified Eagle Medium (DMEM-10% FCS) containing 10% fetal calf serum (FCS). The cells were seeded on a 6-well plate (produced by Falcon) at 4×10^5 cells/well and then cultured for 24 hours. The resultant was washed 3 times using phosphate buffered saline (PBS). Subsequently, DMEM-10% FCS containing 1 mM 8-nitroguanosine-3′,5′-cyclic monophosphate and 1 mM 8-Br-cGMP (produced by SIGMA) was added to the cells. Medium was immediately removed at 5 minutes, 10 minutes, 15 minutes, and 30 minutes after addition, followed by 2 instances of washing with PBS. A cell lysis solution (20 mM Tris-HCl (pH 8.0), 0.15 M NaCl, 1 mM EDTA, 1 mM EGTA, 1% TritonX-100, 2.5 mM sodium pyrophosphate, 1 mM β-glycerolphosphate, […], 1 μg/ml leupeptin, and 1 mM PMSF) was added. The resultant was allowed to stand on ice for 5 minutes, recovered using a cell scraper, transferred into an Eppendorf tube, and then ultrasonicated twice (5 seconds each). […] The protein concentration of the soluble fraction of the supernatant was determined using a BCA protein assay (produced by PIERCE). […] The resultant was then washed 3 times with TBST (10 minutes each), chemiluminescence was detected using LAS 1000plus (produced by FujiFilm) and ECL-plus (produced by Amersham Biosciences) as color developers, and then image files were incorporated. […] As is understood from the results in FIG. 1, no bands were detected at 0 minutes, but a 50-kDa band of VASP having the phosphorylated Ser at position 157 was detected at 5, 10, 15, and 30 minutes after addition of 8-nitroguanosine-3′,5′-cyclic monophosphate or 8-Br-cGMP.
# [1] = test system: excised rat carotid artery ring specimen; experiment: Effect of relaxing vascular smooth muscle: phenylephrine pre-contracted excised rat carotid artery ring specimen, Magnus equipment; conditions: for concentration required for exertion of the tension variation of 0.1 g: 100 nM phenylephrine pre-contraction, resting tension 1 g
# Protocol: The effect of relaxing vascular smooth muscle exerted by 8-nitroguanosine-3′,5′-cyclic monophosphate was determined according to the method of Magnus R (Ergen Physiol. 2, 637-672, 1903) by causing phenylephrine, which is an α1 adrenergic receptor agonist, to act to cause pre-contraction of an excised rat carotid artery ring specimen, adding 8-nitroguanosine-3′,5′-cyclic monophosphate at different concentrations, and then determining the resulting relaxing effect using Magnus laboratory equipment, Specifically, an SD rat (male, 10-week-old, body weight of 350 g, CHARLES RIVER LABORATORIES JAPAN, INC.) was sacrificed under ether anesthesia, a carotid artery was excised, a stainless-steel bar was inserted into the intravascular lumen, and then endothelial cells were removed through scraping, thereby preparing ring vascular specimens of approximately 4 mm each. The vascular specimens were immersed in 3 ml of a Krebs buffer (1.2 mM NaHPO4, 120 mM NaCl, 5.9 mM KCl, 2.5 mM CaCl2, 1.2 mM MgCl2, 15.5 mM NaHCO3, and 11.5 mM glucose). The Krebs buffer used herein had been previously kept at 37° C., aerated with 95% O2+5% CO2 for oxygenation, and adjusted to pH of 7.4. The ring vascular specimens were fixed within a microtissue organ bath MTOB-2 (produced by Labo Support Co., Ltd.). Isometric tension was measured at the resting tension of 1 g using an isometric transducer and an amplifier for such transducer (AG-621G Nihon Kohden Corporation). A PowerLab data acquisition apparatus (AD instruments) was used for data analysis. 1-Phenylephrine hydrochloride (produced by Wako Pure Chemical Industries, Ltd.) was added at a final concentration of 100 nM to the Krebs buffer, so as to sufficiently contract the blood vessels. 8-Nitroguanosine-3′,5′-cyclic monophosphate and 8-Br-cGMP were each cumulatively administered at final concentrations of 1 μM, 3 μM, 10 μM, 30 μM, 100 μM, and 300 μM. The relaxing action on vascular smooth muscle was determined. […] In particular, whereas the 8-nitroguanosine-3′,5′-cyclic monophosphate concentration required for exertion of the tension variation of 0.1 g was 10 μM, the 8-Br-cGMP concentration required for the same was 30 μM.
# [2] = endothelium-removed rat carotid artery ring
SMILES,50-kDa band of VASP having the phosphorylated Ser at position 157 (anti-VASP (Ser157) antibody) (protein kinase G),"concentration required for exertion of the tension variation of 0.1 g [1, 2] [µM]","50-kDa band shifted to the higher molecular weight side because of phosphorylation (antibody recognizing the entire VASP molecule) (protein kinase G; 1 mM compound, at 5 minutes or more after addition, almost no 50-kDa band at 0 minutes)","relaxing effect on blood vessel contracted using phenylephrine ([1]; endothelium-removed rat carotid artery ring, 100 nM phenylephrine, cumulative 1-300 μM)","effect of relaxing vascular smooth muscle relative to 8-Br-cGMP ([1]; rat carotid artery ring, from concentrations giving tension variation of 0.1 g)"
"Nc1nc2c(nc(Br)n2[C@@H]2O[C@@H]3COP(=O)(O)O[C@H]3[C@H]2O)c(=O)[nH]1 [8-Br-cGMP, 8-bromoguanosine-3′,5′-cyclic monophosphate, reference compound]",detected,30,,,
"Nc1nc2c(nc([N+](=O)[O-])n2C2O[C@@H]3COP(=O)(O)OC3C2O)c(=O)[nH]1 (stereo partly shown) [8-nitroguanosine-3′,5′-cyclic monophosphate]",detected,10,detected in all cases,exerted a relaxing effect,approximately 3 times

# — patent US7935814B2, “Nitroguanosine-3′ 5′-cyclic monophosphate compound and protein kinase G activating agent” (Kumamoto University, priority 2005, dated 2011)
